This test has as its system Endogenous Huntingtin Protein. Kind of test: Endogenous Huntingtin Protein Assay (ELISA-based MSD electrochemiluminescence). The format is cell-based. The following applies: Table 2; MSD plates coated with MW1 (expanded polyglutamine) or MAB2166 capture antibody; "inactive" = result above the detection limit of the assay. In a few lines:
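MSD electrochemiluminescence sandwich ELISA: capture with MW1 (expanded polyQ) or MAB2166 at 1 µg/mL, samples incubated overnight at 4 °C. Detection by rabbit mAb #56565 then SULFO-TAG anti-rabbit antibody, each 0.25 µg/mL for 1 h at room temperature, read in buffer T on SI 6000 imager.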
In general terms: In an ELISA, binding on a coated surface is turned into a signal by an enzyme label.
By IC50 is commonly meant the concentration that gives 50% inhibition. A high value points to lower potency. Turning to `C[C@@H]1CN(c2ncc(-c3ccc(-c4cn[nH]c4)cc3O)nn2)C[C@H](C2CC2)N1` [Cpd 225, 2-{3-[(3S,5R)-3-cyclopropyl-5-methylpiperazin-1-yl]-1,2,4-triazin-6-yl}-5-(1H-pyrazol-4-yl)phenol], half-maximal inhibition (IC50) was put at 13.4 nM.

In turn, `CCC[C@H]1CN(c2ncc(-c3ccc(-c4cn[nH]c4)cc3O)nn2)CCN1` [Cpd 37, 2-{3-[(3S)-3-propylpiperazin-1-yl]-1,2,4-triazin-6-yl}-5-(1H-pyrazol-4-yl)phenol] came in with a half-inhibitory concentration (IC50) of 50.7 nM.

Compound `Cc1nc2cc(-c3ccc(-c4cnc(N5CCN[C@@H](C(C)C)C5)nn4)c(O)c3)ccn2n1` [Cpd 147, 5-(2-methyl[1,2,4]triazolo[1,5-a]pyridin-7-yl)-2-{3-[(3S)-3-(propan-2-yl)piperazin-1-yl]-1,2,4-triazin-6-yl}phenol] had an IC50 of 38.8 nM.

For the compound `[2H]C([2H])([2H])n1cc(-c2ccc(-c3cnc(N4CCN[C@@H](C(C)C)C4)nn3)c(O)c2)cn1` [Cpd 47, 5-[1-(Hz)methyl-1H-pyrazol-4-yl]-2-{3-[(3S)-3-(propan-2-yl)piperazin-1-yl]-1,2,4-triazin-6-yl}phenol], the IC50 turned out to be 154 nM.

Compound `Oc1cc(-c2ncsn2)ccc1-c1cnc(N2CCN[C@@H](C3CC3)C2)nn1` [Cpd 213, 2-{3-[(3S)-3-cyclopropylpiperazin-1-yl]-1,2,4-triazin-6-yl]-5-(1,2,4-thiadiazol-3-yl)phenol] had an IC50 of 7.7 nM.

With `CC(C)[C@H]1CN(c2ncc(-c3ccc(-c4cnn5ccccc45)cc3O)nn2)CCN1` [Cpd 244, 2-{3-[(3S)-3-(propan-2-yl)piperazin-1-yl]-1,2,4-triazin-6-yl}-5-(pyrazolo[1,5-a]pyridin-3-yl)phenol], the IC50 stood at 382 nM.

On to `Cc1nc2c(C)cc(-c3ccc(-c4cnc(N5CCN[C@@H](C(C)C)C5)nn4)c(O)c3)nn2n1` [Cpd 92, 5-(2,8-dimethyl[1,2,4]triazolo[1,5-b]pyridazin-6-yl)-2-{3-[(3S)-3-(propan-2-yl)piperazin-1-yl]-1,2,4-triazin-6-yl}phenol], for which the IC50 was found to be 7.9 nM.

`Cc1nc(-c2ccc(-c3cnc(N4CCN[C@@H](C5CC5)C4)nn3)c(O)c2)ns1` [Cpd 245, 2-{3-[(3S)-3-cyclopropylpiperazin-1-yl]-1,2,4-triazin-6-yl}-5-(5-methyl-1,2,4-thiadiazol-3-yl)phenol] returned an IC50 of 11.5 nM.

As to `C[C@@H]1CN(c2ncc(-c3ccc(-c4ccn(C)n4)cc3O)nn2)C[C@H](C2CCC2)N1` [Cpd 240, 2-{3-[(3S,5R)-3-cyclobutyl-5-methylpiperazin-1-yl]-1,2,4-triazin-6-yl}-5-(1-methyl-1H-pyrazol-3-yl)phenol], the IC50 worked out at 171 nM.

As to `CC(C)[C@H]1CN(c2ncc(-c3ccc(-c4cnc5nsnc5c4)cc3O)nn2)CCN1` [Cpd 264, 2-{3-[(3S)-3-(propan-2-yl)piperazin-1-yl]-1,2,4-triazin-6-yl}-5-([1,2,5]thiadiazolo[3,4-b]pyridin-6-yl)phenol], the IC50 is 125 nM.

On to `Cc1ncc2cc(-c3ccc(-c4cnc(N5CCN[C@@H](C6CC6)C5)nn4)c(O)c3)ccn12` [Cpd 195, 2-{3-[(3S)-3-cyclopropylpiperazin-1-yl]-1,2,4-triazin-6-yl}-5-(3-methylimidazo[1,5-a]pyridin-7-yl)phenol], for which inhibition was half-maximal at 9.1 nM (IC50).

`COc1cc(-c2ccc(-c3cnc(N4C[C@@H](C5CC5)N[C@@H](C)C4)nn3)c(O)c2)nc(OC)n1` [Cpd 220, 2-{3-[(3R,5S)-3-cyclopropyl-5-methylpiperazin-1-yl]-1,2,4-triazin-6-yl}-5-(2,6-dimethoxypyrimidin-4-yl)phenol] showed an IC50 of 88.3 nM.

`CC(C)(C)[C@H]1CN(c2ncc(-c3ccc(-c4ncsn4)cc3O)nn2)CCN1` [Cpd 258, 2-{3-[(3S)-3-tert-butylpiperazin-1-yl]-1,2,4-triazin-6-yl}-5-(1,2,4-thiadiazol-3-yl)phenol] displayed an IC50 of 10.8 nM.

Compound `Oc1cc(-c2ccncc2F)ccc1-c1cnc(N2CCN[C@@H](C3CC3)C2)nn1` [Cpd 178, 2-{3-[(3S)-3-cyclopropylpiperazin-1-yl]-1,2,4-triazin-6-yl}-5-(3-fluoropyridin-4-yl)phenol] yielded an IC50 of 300 nM.

These data come from US20230234942A1, “COMPOUNDS FOR TREATING HUNTINGTON'S DISEASE” (PTC Therapeutics, Inc., priority 2020, published 2023).
